Data on 1 compound can be found in patent US20070072917A1, “Substituted 2-aminotetralin for the treatment of depression” (SRZ Properties, Inc., priority 2003, published 2007).

The subject of test [1] is bulbectomised rats. Put plainly: bulbectomy study (olfactory bulbs removed on both sides). The format is in vivo, Sprague-Dawley rats. Particulars: low doses, 3 minutes on test field. As for the experimental part:
In a further animal model (embodiment 3), it was examined whether the antidepressive effects of rotigotine can be distinguished from a general motor stimulation. In this case, rotigotine was administered to rats whose olfactory bulbs had been removed on both sides. The removal of the olfactory bulb leads to an adaptive hyperactivity in the untreated control group. It is known from literature that chronically administered antidepressants lead to a reduction in the movement activity of the animals in this model, whereas stimulants further increase the motor activity (van Riezen H et al, Br J. Pharmacol. 60(4), 1977, 521; Kelly J P et al, Pharmacol Ther. 74(3), 1997, 299). Therefore, it is possible to discriminate between antidepressive and non-specific stimulatory effects of an active ingredient with this model. […] The bulbectomy study was carried out on Sprague-Dawley rats. A sham-operated group, which was operated on without removal of the olfactory bulbs, served as a control group. 14 days after the operation, the rats were treated with vehicle, a rotigotine depot suspension (every second day) or imipramine. On test days, the rats were placed onto a test field and left to themselves for 3 minutes. The locomotor activities of the animals were thereby measured on the basis of the number of lines crossed.

The subject of test [2] is rats. The experiment in a line: learned helplessness test. It is filed as in vivo. Particulars: several days of administration, low concentrations / depending on the dose, vs vehicle control (HC). The method, then: In the “learned helplessness test”, rats are repeatedly subjected to uncontrollable stress. This brings about an impaired learning ability in the animals in a later situation (for example after 48 hours) in which they could escape the stress again. Following the sub-chronic but not acute administration of antidepressants, the learning ability normalises again and the animals learn to escape the (announced) stress (in time) (Sherman, Pharmacology Biochemistry & Behavior 16, 1982, 449).

The test system of test [3] is rats. Put plainly: forced swim test. It is filed as in vivo. Particulars: repeated swim test, subcutaneously applied. From the text: The “forced swim test” is an animal model in which depressive episodes are triggered by acute stress. In this test, rats are forced to swim in a limited space. After initial attempts to save themselves, in which the animals realise the hopelessness of the situation, they lapse into immobility. On repetition of the experiment, the animals remain immobile from the start of the experiment. If the animals are pre-treated with antidepressants, the period of immobility in the repeated test is shortened and the animals generally commence search and escape movements immediately after transfer into the water basin (Porsolt, Biomedicine 30, 1979, 139).

Entries after “also recorded” stand apart in the source; their conditions may differ.

On to `CCCN(CCc1cccs1)C1CCc2c(O)cccc2C1` (single isomer, unassigned; (-)) [rotigotine, (−)-5,6,7,8-tetrahydro-6-[propyl[2-(2-thienyl)ethyl]amino]-1-naphthol], for which the “bulbectomy-induced locomotor hyperactivity (number of lines crossed)” value in test [1] was “almost complete suppression of the bulbectomy-induced locomotor hyperactivity; also recorded: significant antidepressive effect; also recorded: significantly reduce motor hyperactivity”. For the same compound, the learning behaviour result in test [2] is reported as “significant antidepressive effect”. Moreover, the results for the period of immobility entry in test [3] and in test [3] (listed as Rotigotine) were “significant antidepressive effect; also recorded: clear reduction in the period of immobility” and “significantly shortened period of immobility”, respectively.
